In US5780589A, “Ultraselective opioidmimetic peptides and pharmacological and therapeutic uses thereof” (The United States of America as represented by the …, priority 1994, dated 1998):
Entries after “also recorded” stand apart in the source; their conditions may differ. Where two headings read alike, the source gives them in different places. Non-standard residues stand in square brackets, D forms with d. Residues, ends and D or L forms follow the SMILES beside them. No end group written: not given here. Dmt = Cc1cc(O)cc(C)c1C[C@H](N)C(=O)O; Tic = O=C(O)[C@@H]1Cc2ccccc2CN1; dTic = O=C(O)[C@H]1Cc2ccccc2CN1

How the values were obtained:
μ receptor [1] = target: T1, μ receptor (Rattus norvegicus, UniProt P33535); assay: μ receptor binding, rat membrane synaptosomes, [3H]DAGO; settings: rat synaptosomes (P2), mean ± SEM
T1 construct: Rat membrane synaptosome preparations (P2 fraction) were prepared as detailed previously; from tissue; host or cells: rat synaptosomal membranes (P2 fraction)
Protocol: (§1) Rat membrane synaptosome preparations (P2 fraction) were prepared as detailed previously, which included a preincubation step to reduce the presence of endogenous ligands and binding of G proteins (33,40). […] Samples were rapidly filtered through wetted glass fiber filters and thoroughly washed with 6 mL (3×2 mL) ice-cold 50 mM Tris-HCl, pH 7.5, containing 0.01-0.1% chicken egg albumin or bovine serum albumin. […] The filters were dried at 70° C. and the radioactivity determined after an overnight incubation period in CytoScint to maximize the radioactivity detected and reduce variability between samples. The IC50 values were converted to affinity constants (Ki) according to Cheng and Prusoff (48).

δ opioid receptor [2] = target: T2, δ opioid receptor (Rattus norvegicus, UniProt P33533); assay: δ receptor binding, rat membrane synaptosomes, [3H]DPDPE; settings: for Ki: [3H]DPDPE, rat synaptosomes (P2), mean ± SEM; for μ/δ (receptor selectivity): ratio Ki μ / Ki δ; for selectivity change on D-Tic substitution: δ→μ
T2 construct: Rat membrane synaptosome preparations (P2 fraction) were prepared as detailed previously; from tissue; host or cells: rat synaptosomal membranes (P2 fraction)
Protocol: as §1

δ receptors = δ receptors (Mus musculus, UniProt P32300); settings: for antagonist properties in MVD bioassay: in vitro mouse vas deferens
Protocol: (§2) The in vitro pharmacological assays were undertaken using published methods (32) based on the organ bath technique of Kosterlitz and Watt (50). For μ receptors, a 2-3 cm segment of guinea-pig ileum (GPI) mounted in a 20 mL organ bath and for δ receptors, a single mouse vas deferens (MVD) was obtained from a mature animal.

μ receptors = μ receptors (Cavia porcellus, UniProt P97266); assay: Guinea-pig ileum (GPI) bioassay, electrically stimulated contractions
Protocol: as §2

δ receptor = target: T3, δ receptor (Rattus norvegicus, UniProt P33533); assay: Multi-site (one- vs two-site) δ receptor binding analysis; settings: for Ki: Prism fit; for δ receptor binding model fitted: one-site vs two-site; for Percent low-affinity sites: two-site δ receptor fit
T3 construct: Rat membrane synaptosome preparations (P2 fraction) were prepared as detailed previously; from tissue; host or cells: rat synaptosomal membranes (P2 fraction)
Protocol: as §1
Multi-site binding analyses, based on stringent statistical methods, were performed as described in Bryant et al. (41) and Attila et al. (49). Receptor assays were conducted in triplicate with 25-35 graded concentrations of peptide; the resulting curves were both individually assessed and combined from several distinct assays, and analyzed using Prism™ (v. 1.02, GraphPad, San Diego, Calif.).

δ opioid receptor [3] = target: T2, δ opioid receptor; settings: data from Temussi et al. (39), cited from earlier work; for Ki: [3H]DPDPE; for μ/δ (receptor selectivity): ratio Ki μ / Ki δ
μ receptor [4] = target: T1, μ receptor; settings: [3H]DAGO; data from Temussi et al. (39); cited from earlier work
mice = assay: Tail flick test (TFT), analgesia and morphine antagonism in mice; assay type: in vivo, CD-1 mice
Protocol: Animal procedures were conducted under protocols approved by the Animal Use and Care Committee, NIEHS, an AALAC accredited facility. Tail flick test (TFT) used a radiant heat source on the tail of Fisher 344 rats or CD-1 mice (52). The response was standardized by the subcutaneous (sc) injection of 5 mg morphine sulfate/kilogram (Kg) body weight or 0.1-0.25 mg morphine/Kg body weight by iv injection; peptides were injected in 100 μL volume in sterile saline. […] Intrathecal injection of peptides in mice used the method of Hylden and Wilcox (53). A base-line and cut-off 10 sec were determined in the TFT with naive and morphine-dosed animals, respectively,to prevent damage to the tail. 1 μg to 10 mg per kilogram of animal was used for iv, icv or sc; higher doses in the mg range were used for sc injection.

[5] = concentration equivalent of pA2, against deltorphin C
[6] = high affinity δ site, read-out: Ki (nM) High
[7] = low affinity δ site, read-out: Ki (nM) Low
[8] = guinea-pig ileum, read-out: GPI IC50

T1 sequence (P33535 whole entry): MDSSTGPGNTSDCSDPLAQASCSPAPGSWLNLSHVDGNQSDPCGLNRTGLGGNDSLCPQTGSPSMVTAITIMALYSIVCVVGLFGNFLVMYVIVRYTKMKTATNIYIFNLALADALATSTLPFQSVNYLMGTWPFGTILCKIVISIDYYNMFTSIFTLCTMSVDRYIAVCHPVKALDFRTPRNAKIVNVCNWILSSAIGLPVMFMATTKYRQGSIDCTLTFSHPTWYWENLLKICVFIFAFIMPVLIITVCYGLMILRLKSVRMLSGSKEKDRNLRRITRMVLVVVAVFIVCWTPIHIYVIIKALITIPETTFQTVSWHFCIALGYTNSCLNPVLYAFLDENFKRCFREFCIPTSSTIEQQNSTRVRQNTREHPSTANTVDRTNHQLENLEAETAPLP
μ receptors, sequence (P97266 whole entry, looked up): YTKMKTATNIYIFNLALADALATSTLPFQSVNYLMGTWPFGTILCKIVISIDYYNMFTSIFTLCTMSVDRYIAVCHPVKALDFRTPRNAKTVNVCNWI
T3 sequence (P33533 whole entry): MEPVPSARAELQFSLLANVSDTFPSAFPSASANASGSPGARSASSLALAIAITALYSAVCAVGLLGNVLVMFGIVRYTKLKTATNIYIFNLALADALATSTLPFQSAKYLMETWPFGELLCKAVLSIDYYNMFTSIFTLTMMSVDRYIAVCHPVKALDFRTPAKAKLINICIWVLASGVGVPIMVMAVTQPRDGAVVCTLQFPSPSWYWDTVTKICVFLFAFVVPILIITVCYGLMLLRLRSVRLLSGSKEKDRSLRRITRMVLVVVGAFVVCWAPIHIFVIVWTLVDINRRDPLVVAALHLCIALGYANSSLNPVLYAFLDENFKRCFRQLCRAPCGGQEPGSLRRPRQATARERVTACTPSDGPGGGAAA
T2 sequence (P33533 whole entry): as above
δ receptors, sequence (P32300 whole entry): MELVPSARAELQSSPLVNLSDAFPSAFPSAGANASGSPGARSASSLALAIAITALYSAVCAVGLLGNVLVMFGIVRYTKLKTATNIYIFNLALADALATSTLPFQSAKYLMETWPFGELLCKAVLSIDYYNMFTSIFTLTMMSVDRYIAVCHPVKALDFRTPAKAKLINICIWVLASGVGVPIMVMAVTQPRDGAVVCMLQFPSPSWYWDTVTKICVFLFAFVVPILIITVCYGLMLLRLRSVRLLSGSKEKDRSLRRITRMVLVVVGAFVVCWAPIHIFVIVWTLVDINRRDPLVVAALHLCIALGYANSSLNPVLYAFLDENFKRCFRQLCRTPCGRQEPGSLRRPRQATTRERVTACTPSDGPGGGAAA

Cc1cc(O)cc(C)c1C[C@H](N)C(=O)N1Cc2ccccc2C[C@@H]1C(=O)N[C@@H](C)C(=O)O [Peptide 10, Dmt-D-Tic-Ala-OH] (H-[Dmt]-[dTic]-Ala-OH)
Ki (μ receptor [1]): 82.8 ± 2 nM
Ki (δ opioid receptor [2]): 88.7 ± 13.8 nM
μ/δ (receptor selectivity) (δ opioid receptor [2]): 0.93

O=C1N[C@@H](Cc2ccc(O)cc2)C(=O)N2Cc3ccccc3C[C@H]12 [Peptide 18, c(Tyr-D-Tic), reference compound]
Ki (μ receptor [1]): 128000 nM
Ki (δ opioid receptor [2]): 8910 nM
μ/δ (receptor selectivity) (δ opioid receptor [2]): 14

Cc1cc(O)cc(C)c1C[C@@H]1NC(=O)[C@@H]2Cc3ccccc3CN2C1=O [Peptide 6, c(Dmt-Tic)]
Ki (μ receptor [1]): 635 ± 69.3 nM
μ/δ (receptor selectivity) (δ opioid receptor [2]): 66
fold higher δ affinity relative to Tyr-Tic cognate (δ opioid receptor [2]; vs Tyr-Tic-OH (peptide 12) or c(Tyr-Tic) (peptide 17)): 4,000 fold
Kb (δ receptors): 3720 nM
MVD nM (δ receptors; [5]): 3,800 nM
antagonist properties in MVD bioassay (δ receptors): antagonist properties
IC50 (μ receptors): 20000 ± 2000 nM
Ki (δ receptor; [6]): 0.09 nM
Ki (δ receptor; [7]): 9.4 nM
δ receptor binding model fitted (δ receptor): two-site model
Percent low-affinity sites (δ receptor): 86.8 ± 3.9%

NC(=O)[C@H]1Cc2ccccc2CN1C(=O)[C@@H](N)Cc1ccc(O)cc1 [Peptide 15, Tyr-D-Tic-NH2] (H-Tyr-[dTic]-NH2)
Ki (δ opioid receptor [3]): 5960 nM
μ/δ (receptor selectivity) (δ opioid receptor [3]): 0.53
selectivity change on D-Tic substitution (δ opioid receptor [2]): reversal of selectivity
Ki (μ receptor [4]): 3130 nM

Cc1cc(O)cc(C)c1C[C@@H]1NC(=O)[C@H]2Cc3ccccc3CN2C1=O [Peptide 7, c(Dmt-D-Tic)]
Ki (μ receptor [1]): 728 ± 72.9 nM
Ki (δ opioid receptor [2]): 499 ± 117 nM
μ/δ (receptor selectivity) (δ opioid receptor [2]): 1.5

Cc1cc(O)cc(C)c1C[C@H](N)C(=O)N1Cc2ccccc2C[C@@H]1C(=O)O [Peptide 3, Dmt-D-Tic-OH] (H-[Dmt]-[dTic]-OH; N-terminus assumed)
Ki (μ receptor [1]): 224 ± 25.6 nM

Cc1cc(O)cc(C)c1C[C@H](N)C(=O)N1Cc2ccccc2C[C@H]1C(N)=O [Peptide 2, Dmt-Tic-NH2] (H-[Dmt]-[Tic]-NH2; N-terminus assumed)
Ki (δ opioid receptor [2]): 1.22 ± 0.09 nM
Kb (δ receptors): 63.1 nM
MVD (δ receptors; [5]): 4.2 nM
antagonist properties in MVD bioassay (δ receptors): antagonist properties
IC50 (μ receptors): > 10000 nM
Ki (δ receptor; [6]): 1.06 nM
δ receptor binding model fitted (δ receptor): one-site binding model
Percent low-affinity sites (δ receptor): 6.2 ± 40.1%

Cc1cc(O)cc(C)c1C[C@H](N)C(=O)N1Cc2ccccc2C[C@H]1C(=O)O [Peptide 1, Dmt-Tic-OH] (H-[Dmt]-[Tic]-OH; N-terminus assumed)
analgesia in tail flick test (mice; iv, 100 ug/mouse where stated): no demonstratable analgesia; also recorded: no demonstrable analgesia
block of the effect of morphine in tail flick test (mice; morphine injected iv (0.25 mg/kg), peptide 100 ug/mouse iv): completely blocked
Ki (μ receptor [1]): 3320 nM
Kb (δ receptors): 6.31 nM
MVD (δ receptors; [5]): 5.7 nM
antagonist properties in MVD bioassay (δ receptors): antagonist properties
δ receptor binding model fitted (δ receptor): one-site binding model
Percent low-affinity sites (δ receptor): 30.7 ± 91.5%

Cc1cc(O)cc(C)c1C[C@H](N)C(=O)N1Cc2ccccc2C[C@H]1C(=O)N[C@@H](C)C(N)=O [Peptide 9, Dmt-Tic-Ala-NH2] (H-[Dmt]-[Tic]-Ala-NH2)
μ/δ (receptor selectivity) (δ opioid receptor [2]): 195
IC50 (μ receptors; [8]): 4740 ± 900 nM
Ki (δ receptor; [6]): 0.18 nM
Ki (δ receptor; [7]): 10.7 nM

Oc1ccc2c3c1O[C@H]1c4[nH]c5ccccc5c4C[C@@]4(O)[C@@H](C2)N(CC2CC2)CC[C@]314 [Naltrindole, naltrindole, reference compound]
MVD pA2 (δ receptors; antagonism against deltorphin C as the agonist): 9.2
MVD (δ receptors; [5]): 0.7 nM
GPI nM (with pA2) (μ receptors; guinea-pig ileum): 53 nM
GPI pA2 (μ receptors; guinea-pig ileum): 7.3

Cc1cc(O)cc(C)c1C[C@H](N)C(=O)N1Cc2ccccc2C[C@@H]1C(=O)N[C@@H](C)C(N)=O [Peptide 11, Dmt-D-Tic-Ala-NH2] (H-[Dmt]-[dTic]-Ala-NH2)
Ki (μ receptor [1]): 5.8 ± 0.85 nM
Ki (δ opioid receptor [2]): 46.4 ± 2.7 nM
μ/δ (receptor selectivity) (δ opioid receptor [2]): 0.13

Cc1cc(O)cc(C)c1C[C@H](N)C(=O)N1Cc2ccccc2C[C@@H]1C(N)=O [Peptide 4, Dmt-D-Tic-NH2] (H-[Dmt]-[dTic]-NH2; N-terminus assumed)
Ki (δ opioid receptor [2]): 56.9 ± 2.9 nM

C[C@H](NC(=O)[C@H]1Cc2ccccc2CN1C(=O)[C@@H](N)Cc1ccc(O)cc1)C(N)=O [Peptide 22, Tyr-D-Tic-Ala-NH2] (H-Tyr-[dTic]-Ala-NH2)
Ki (δ opioid receptor [3]): 21100 nM
μ/δ (receptor selectivity) (δ opioid receptor [3]): 0.39
selectivity change on D-Tic substitution (δ opioid receptor [2]): reversal of selectivity
Ki (μ receptor [4]): 8150 nM

Tyr-Tic-NH2 [Peptide 13]
Ki (δ opioid receptor [3]): 166 ± 48.1 nM
μ/δ (receptor selectivity) (δ opioid receptor [3]): 173
Ki (μ receptor [4]): 28700 nM

N[C@@H](Cc1ccc(O)cc1)C(=O)N1Cc2ccccc2C[C@H]1CO [Peptide 16, Tyr-Tic-CH2 OH, reference compound]
Ki (μ receptor [1]): 11000 nM
Ki (δ opioid receptor [2]): 128 ± 34.7 nM
μ/δ (receptor selectivity) (δ opioid receptor [2]): 86

C[C@H](NC(=O)[C@H]1Cc2ccccc2CN1C(=O)[C@@H](N)Cc1ccc(O)cc1)C(=O)O [Peptide 21, Tyr-D-Tic-Ala-OH, reference compound] (H-Tyr-[dTic]-Ala-OH)
Ki (μ receptor [1]): 14000 nM
Ki (δ opioid receptor [2]): 2350 nM
μ/δ (receptor selectivity) (δ opioid receptor [2]): 6

Cc1cc(O)cc(C)c1C[C@H](N)C(=O)N1Cc2ccccc2C[C@H]1C(=O)N[C@@H](C)C(=O)O [Peptide 8, Dmt-Tic-Ala-OH] (H-[Dmt]-[Tic]-Ala-OH)
Ki (μ receptor [1]): 5810 nM
Ki (δ opioid receptor [2]): 0.285 ± 0.03 nM
μ/δ (receptor selectivity) (δ opioid receptor [2]): 20,396
Kb (δ receptors): 3.98 nM
IC50 (μ receptors; [8]): > 10000 nM
Ki (δ receptor; [6]): 0.12 nM
Ki (δ receptor; [7]): 4.8 nM

N[C@@H](Cc1ccc(O)cc1)C(=O)N1Cc2ccccc2C[C@H]1C(=O)O [Peptide 12, Tyr-Tic-OH, reference compound] (H-Tyr-[Tic]-OH)
μ/δ (receptor selectivity) (δ opioid receptor [2]): 148

N[C@@H](Cc1ccc(O)cc1)C(=O)N1Cc2ccccc2C[C@@H]1C(=O)O [Peptide 14, Tyr-D-Tic-OH, reference compound] (H-Tyr-[dTic]-OH)
Ki (μ receptor [1]): 26300 nM
Ki (δ opioid receptor [2]): 9050 nM
μ/δ (receptor selectivity) (δ opioid receptor [2]): 2.9

Cc1cc(O)cc(C)c1C[C@H](N)C(=O)N1Cc2ccccc2C[C@H]1CO [Peptide 5, Dmt-Tic--CH2 OH]
Ki (μ receptor [1]): 151 ± 16.3 nM
Ki (δ opioid receptor [2]): 0.44 ± 0.14 nM
μ/δ (receptor selectivity) (δ opioid receptor [2]): 344
Kb (δ receptors): 100 nM
MVD (δ receptors; [5]): 6.6 nM
antagonist properties in MVD bioassay (δ receptors): antagonist properties
IC50 (μ receptors): > 10000 nM
Ki (δ receptor; [6]): 0.13 nM
Ki (δ receptor; [7]): 5.2 nM
δ receptor binding model fitted (δ receptor): two-site model
Percent low-affinity sites (δ receptor): 20.9 ± 5.3%

Tyr-[Tic]-Ala-NH2 [Peptide 20]
Ki (δ opioid receptor [3]): 55.5 ± 13.7 nM
μ/δ (receptor selectivity) (δ opioid receptor [3]): 610
Ki (μ receptor [4]): 33800 nM

O=C1N[C@@H](Cc2ccc(O)cc2)C(=O)N2Cc3ccccc3C[C@@H]12 [Peptide 17, c(Tyr-Tic), reference compound]
Ki (μ receptor [1]): 51500 nM
Ki (δ opioid receptor [2]): 41800 nM
μ/δ (receptor selectivity) (δ opioid receptor [2]): 1.2

Tyr-[Tic]-Ala-OH [Peptide 19]
Ki (δ opioid receptor [3]): 56.1 ± 10.3 nM
μ/δ (receptor selectivity) (δ opioid receptor [3]): 148
Ki (μ receptor [4]): 8290 nM
